Data as given in patent US20240024347A1 (The Johns Hopkins University, priority 2020, published 2024).
Read-outs that look alike come from different tables or passages of the source.

Assays:
[1] = test system: murine NPcis (NF1^+/−;p53^+/−) tumor cells; assay: Tumor growth in murine sarcoma model (subcutaneous NPcis flank tumors); format: in vivo, mouse
Description: (§1) C57BL/6 mice at 10 weeks of age between 25 g and 30 g were obtained from Envigo. To induce solid tumor growth in animals, 3-5 million murine NPcis (NF1^+/−;p53^+/−) tumor cells grown and harvested from cell culture, were injected subcutaneously to the right flank. […] Animals were then randomly assigned to a treatment arm: Vehicle or MK-905 (n=10/group; average tumor volume of ˜200 mm^3). […] Tumor volume was calculated by the formula: volume=(L×(W^2))/2. […]

[2] = test system: NALM6-Luc-mCh-Puro human acute lymphoblastic leukemia; assay: In vivo antitumor efficacy, NALM6-Luc-mCh-Puro leukemia in female NSG mice (BLI); conditions: MK-905 40 then 20 mg/kg i.p./day, 6-MP 20 then 10 mg/kg i.p./day; for day 15 mean BLI signal: 5 days/week, vehicle 1.65×10^10; for percent of the median vehicle group tumor BLI signal: day 15
Description: (§2) The in vivo antitumor efficacy of MK-905 was evaluated in the NALM6-Luc-mCh-Puro human acute lymphoblastic leukemia in female NSG mice. Mice were inoculated with tumor cells on day 0, staged by BLI on day 3, and sorted into matched treatment groups. The primary endpoint of the study was tumor bioluminescence imaging (BLI) signal. Secondary endpoints included: animal survival, weight changes, and clinical pathology markers. Single timepoint drug metabolite testing was conducted after the first dose of MK-905. Studies were run in comparison to vehicle or 6-MP treatment.

[3] = Single timepoint drug metabolite testing (6-TGMP in mouse plasma) after first dose; format: in vivo; conditions: two hours following initial dose
Description: as §2

healthy NSG mice = conditions: for mice survived >2 weeks: 40 mg/kg group; for Mice surviving >2 weeks: 5 d/week, i.p., healthy female NSG mice, n=5/group
Description: Animal weights and body condition scores were measured three times per week. After twenty one days, surviving mice were euthanized and blood collected for clinical chemistry measurements (complete blood count with differential, clinical chemistries). […] 80% of mice survived >2 weeks in the MK-905 40 mg/kg group, and 100% of mice survived the study in the vehicle and MK-905 20 mg/kg groups.

[4] = ALT (liver inflammation marker) and animal weight in sarcoma-model mice
Description: as §1

Structure (SMILES)	mean tumor volume ([1]; 6-MP 20 mg/kg i.p., following ten days of dosing, vehicle 2,038 mm^3)	day 15 mean BLI signal [2]	percent of the median vehicle group tumor BLI signal [2] [%]	conversion to the active 6-thioguanine monophosphate (6-TGMP) metabolite [3]	mice survived >2 weeks (healthy NSG mice; healthy NSG mice)	blood ALT increase compared to vehicle-treated mice ([4]; at sacrifice, 6-MP 20 mg/kg i.p., ten days)	blood ALT as a marker of liver inflammation ([4]; at sacrifice, 6-MP 20 mg/kg i.p., ten days, vehicle 20 U/L) [U/L]	mean tumor volume ([1]; MK-905 13 mg/kg i.p., following fourteen days of dosing, vehicle 1,657 mm^3) [mm^3]	Tumor weights at sacrifice ([1]; MK-905 13 mg/kg i.p., fourteen days, vehicle 1276 mg) [mg]	mice survived the study (healthy NSG mice; 20 mg/kg group, healthy NSG mice, twenty one days) [%]	Mice surviving >2 weeks (healthy NSG mice; 20 mg/kg)	Mice surviving >2 weeks (healthy NSG mice; 40 mg/kg)	Animal weights relative to starting weight ([4]; MK-905 13 mg/kg i.p., fourteen days) [%]	Serum ALT as a marker of liver inflammation (in words) ([4]; MK-905 13 mg/kg i.p., fourteen days, versus vehicle)
Sc1ncnc2nc[nH]c12 [6-MP, 6-mercaptopurine, reference compound]	1,107 mm^3	1.36×10^10 photons/sec	77	no active metabolite was observed	no mice surviving	two-fold increased	46	–	–	–	–	–	–	–
CC(C)OC(=O)[C@H](C)NP(=O)(OC[C@H]1OC(n2cnc3c(=S)[nH]c(N)nc32)C(O)C1O)Oc1ccccc1 (stereo partly drawn) [MK-905]	–	3.27×10^8 photons/sec	1.3	observed	80%	–	–	415	359	100	5/5	4/5	≤ 10	normal and not significantly different
